The numbers were not newly measured in the CATMoS acute toxicity set (Mansouri et al. 2021), which cites them from elsewhere.

What is called LD50 is the dose at which mortality reaches 50%.

“And” between values parts separate entries of the source, which are not always exact repeats. Equal entries are not always repeated.

This series is described as follows: rat acute oral toxicity. The note with it: in vivo.
On to `COc1ccc(OC)c(C(O)CNC(=O)CN)c1` (stereo unspecified), for which the LD50 is 68.8 mg/kg.

Take `O=[N+]([O-])c1cc2nc(C(F)(F)F)[nH]c2cc1Cl`: the LD50 is 5.55 mg/kg.

As for `CCNc1nc(NC(C)C(C)C)nc(SC)n1` (stereo unspecified), the LD50 is 3000 mg/kg. `CCCCC(CC)COC(=O)c1ccccc1C(=O)O` (stereo unspecified): the LD50 is 1340 mg/kg.

Consider `CCn1c2c(c3cccc(N)c31)CCCC2`, for which the LD50 is 1090 mg/kg. For the compound `COP(=S)(OC)SCn1nc(Cl)ccc1=O`, the LD50 was 5 mg/kg. Take `C=CC(=O)OCCOCCOCCOC(=O)C=C`: the LD50 was 500 mg/kg. With `COc1ccc2cc(C(C)C(=O)OCCO)ccc2c1` (stereo unspecified), the LD50 was 1720 mg/kg. With `CN(C)c1ccc(C(=N)c2ccc(N(C)C)cc2)cc1`, the LD50 is 3000 mg/kg. Consider `CC(C)=CCC(CCN1CCCCC1)(C(N)=O)c1cccc2ccccc12` (stereo unspecified), for which the LD50 is 57 mg/kg. Regarding `CCCCCCCC=O`, the LD50 is 5630 mg/kg. For the compound `ClC1=C(Cl)[C@]2(Cl)[C@H]3[C@H]([C@@H]4O[C@]4(Cl)[C@@H]3Cl)[C@@]1(Cl)C2(Cl)Cl` (racemic), the LD50 is 457 mg/kg. In the case of `OCC1OC(N2CCN(C3OC(CO)C(O)C(O)C3O)CC2)C(O)C(O)C1O` (stereo unspecified), the LD50 was 30000 mg/kg. As to `CC(C(=O)O)c1ccc2c(c1)C(=O)Cc1ccccc1O2` (stereo unspecified), the LD50 is 106 mg/kg.

`CCOP(=O)(OC=CCl)OCC`: the LD50 was 7 mg/kg.

Take `COCCc1ccccc1`: the LD50 was 4100 mg/kg. With `CNC(=O)ON=C1[C@@H](Cl)[C@@H]2C[C@H](C#N)[C@H]1C2` (relative stereo), the LD50 is 25 mg/kg. For `CC(C)=C1C(=O)N(c2ccccc2)N(c2ccccc2)C1=O`, the LD50 was 1280 mg/kg. `CCc1cccc2cc(C(O)CNC(C)(C)C)oc12` (stereo unspecified): the LD50 was 750 mg/kg. On to `CC1CNCCN1` (stereo unspecified), for which the LD50 is 2030 mg/kg. `ClCc1cccnc1`: the LD50 was 316 mg/kg. For `CCOC(=O)C1=CNC2CCCC(C)N2C1=O` (stereo unspecified), the LD50 is 2500 mg/kg. For `CNP1(=S)OCc2cc([N+](=O)[O-])ccc2O1` (stereo unspecified), the LD50 was 125 mg/kg. As to `CCC(=O)C1(c2cccc(O)c2)CCN(C)CC1`, the LD50 is 215 mg/kg. Consider `CC(Cc1ccccc1)NCC1COc2ccccc2C1=O` (stereo unspecified), for which the LD50 was 500 mg/kg. As for `CC(=O)CCc1ccc(OC(C)=O)cc1`, the LD50 was 3040 mg/kg.

Turning to `CCN1CC2CN(C)CC(C1)C2OC(=O)c1ccc(Cl)cc1` (stereo unspecified), the LD50 is 200 mg/kg.

Take `CCCCN(CCCC)S(=O)(=O)c1ccc(Cl)cc1`: the LD50 was 500 mg/kg. In the case of `CCC(N)Cc1c[nH]c2ccccc12` (stereo unspecified), the LD50 is 49 mg/kg.

For `Cc1cc(C)cc(OCC2CNC(=O)O2)c1` (stereo unspecified), the LD50 is 775 mg/kg. As to `O=c1[nH]c2ccccc2o1`, the LD50 is 700 mg/kg. Take `Cc1ccnc(C)c1`: the LD50 was 200 mg/kg. In the case of `CC(=O)OCCOCCOCCOC(C)=O`, the LD50 was 15600 mg/kg. `Cc1cc(Cl)ccc1OCC(=O)O`: the LD50 is 1200 mg/kg and 800 mg/kg. As for `Oc1ccc(C(c2ccc(O)cc2)(C(F)(F)F)C(F)(F)F)cc1`, the LD50 is 3400 mg/kg. With `N#Cc1cccc(C#N)c1`, the LD50 is 860 mg/kg. With `O=C(Nc1nc(C(F)(F)F)c(Cl)s1)c1cc(C(F)(F)F)cc(C(F)(F)F)c1`, the LD50 was 69 mg/kg. As to `CCCCCCCCCCCCCO`, the LD50 was 17200 mg/kg. Regarding `C1CCC(N2CCOCC2)CC1`, the LD50 was 178 mg/kg. As to `C=CCOCCO`, the LD50 is 3050 mg/kg. Take `CCOC(=O)C1(CCCCCCOc2ccc(Cl)cc2)CO1` (stereo unspecified): the LD50 is 250 mg/kg.

Regarding `Cc1nc2ccccc2n1Cc1ccc(Cl)cc1`, the LD50 was 2200 mg/kg.

`Nc1ccc([N+](=O)[O-])c(Cl)n1`: the LD50 is 1780 mg/kg. On to `CCOC(=O)c1ccc(OC)cc1`, for which the LD50 was 2040 mg/kg. As to `C=C(Nc1ccc(NC(=O)COC)cc1)N(C)C`, the 50% lethal dose (LD50) is 4690 mg/kg.

With `NC1CCCc2ccccc2C1` (stereo unspecified), the 50% lethal dose (LD50) is 270 mg/kg. In the case of `CNC(=S)/C=C/c1ccc2c(c1)OCO2`, the LD50 is 230 mg/kg. For the compound `CN(CC#N)N=O`, the LD50 was 45 mg/kg.

For the compound `CCn1nc(C(=O)O)c(=O)c2cc3c(cc21)OCO3`, the LD50 is 3610 mg/kg.

On to `CCN[C@H](C)Cc1cccc(C(F)(F)F)c1`, for which the LD50 was 195 mg/kg. For `CC(C)Oc1ccccc1[N+](=O)[O-]`, the LD50 is 2500 mg/kg. Turning to `OC[C@H]1O[C@@H](n2cnc3c(S)ncnc32)[C@H](O)[C@@H]1O`, the LD50 is 900 mg/kg. On to `CC(C)CC(CC(C)C)OCCOCCO`, for which the LD50 was 8680 mg/kg. Take `COc1nc(C)nc(NC(=O)NS(=O)(=O)c2ccccc2CCC(F)(F)F)n1`: the LD50 is 986 mg/kg. Consider `CC(C)(C=O)CO`, for which the LD50 was 3200 mg/kg. On to `C=CC(=O)OCCOCCOC(=O)C=C`, for which the LD50 is 250 mg/kg. As for `CC(Cc1ccccc1)NCCn1cnc2c1c(=O)n(C)c(=O)n2C` (stereo unspecified), the median lethal dose (LD50) is 100 mg/kg. With `CCOP(=S)(OCC)ON1C(=O)c2cccc3cccc(c23)C1=O`, the LD50 is 500 mg/kg. As for `CC[N+]1(CC)CCC(=C(c2ccccc2)c2ccccc2)C1C` (stereo unspecified), the LD50 is 1090 mg/kg. `CC(C)(C)N(Cl)Cl`: the LD50 is 780 mg/kg. Take `CN(C(=O)c1cc(C(F)(F)F)cc(C(F)(F)F)c1)c1nc(C(F)(F)F)c(Cl)s1`: the LD50 is 501 mg/kg.
